Assay results from patent publication US20070112043A1, “Acylated and non-acylated imidazo[2,1-b]-1,3,4,-thiadiazole-2-sulfonamides, and uses thereof” (priority 2003, published 2007).
In brackets after ≈: the same amount, converted by molar mass. Several values for one entry are separate records, joined by “and”; a condition that tells them apart may be missing. Identical values can stand only once. Entries after “also recorded” stand apart in the source; their conditions may differ. Like-named read-outs stand apart in the source and are kept apart here.

Columns and labels:
15N neuroblastoma cells = assay: Alamar blue viability assay, 15N neuroblastoma; type: cell-based; settings: cellular viability after 48 hours; compound dissolved in DMSO
Description: In order to investigate the anti-cancer potential of compounds represented by formula I-a, 15N neuroblastoma cells lines were treated with compound and assayed for cellular viability after 48 hours. The cellular viability of 15N neuroblastomas treated with compounds 1, 5, 6, 11, and 13 (dissolved in DMSO) are summarized in Table 5 (see Compound 152).
Compounds were tested for anti-cancer properties using the Alamar blue viability assay. Daoy human medulloblastoma cells of 15N neuroblastoma cells were plated at a density of 5000 cells per well of a 96 well plate and cultured in RPMI media supplemented with antibiotics and 5% fetal bovine serum. Cells in culture were incubated with compound for 48 hours after which time Alamar blue was added to the culture media. After 4 hours media was transferred to opaque white plates and fluorescence of transformed alamar blue was measured at excitation 535/emission 595).

Microsomal stability = type: in vitro ADME
[1] = Stability of solutions/formulations; type: physicochemical; settings: for Stability of HPCD formulation: 10 wt/vol % HPCD, room temperature; for Stability in 10 wt/vol HPCD: PBS/HPCD (25:75) solution
Description: (§1) This is illustrated for compound 15 in Table 7.

Male Sprague-Dawley rats = assay: Rat model of cisplatin induced neuropathy (SNCV); type: in vivo; settings: for efficacy in cisplatin model of peripheral neuropathy: dose not stated
Description: (§2) Male Sprague-Dawley rats were administered 2.5 mg/kg cisplatin daily, for five consecutive days to achieve a final cumulative dose of 12.5 mg/kg. On the third day following the final cisplatin injection, animals received compounds SC at concentrations of (3, 10, and 30 mg/kg). Dosing continued Monday through Friday for three consecutive weeks. The effect of cisplatin on peripheral nerve function, and the ability of the compounds to attenuate the cisplatin effect were determined after three weeks of drug treatment by measuring the sensory nerve conduction velocity (SNCV) in the caudal nerve of the tail. Stimulating electrodes were used to deliver 2 mA pulses once per second for 1.5 min. The resulting compound sensory nerve action potentials were averaged, and the mean response onset time was determined from the averaged response. Two mean response times were determined, the second being 20 mm distal from the first. The difference in onset time between the two recordings was determined and used to calculate the conductance velocity.
Male Sprague-Dawley rats (weighing 200-225 g on arrival) were intraperitoneally administered 2.5 mg/kg cisplatin daily, for five consecutive days to achieve a final cumulative dose of 12.5 mg/kg. On the third day following the final cisplatin injection, animals received compounds SC at concentrations of (3, 10, and 30 mg/kg). Dosing continued Monday through Friday for three consecutive weeks.
as §2, with “The” for “Male Sprague-Dawley rats were administered 2.5 mg/kg cisplatin daily, for five consecutive days to achieve a final cumulative dose of 12.5 mg/kg. On the third day following the final cisplatin injection, animals received compounds SC at concentrations of (3, 10, and 30 mg/kg). Dosing continued Monday through Friday for three consecutive weeks. The”, “velocity. [formula]” for “velocity.”
The results of these experiments were combined, and ANOVA was performed, followed by a Fisher LSD test.

[2] = Solubility in water and formulations; settings: for Solubility 10 wt/vol % HPCD water: Na salts in aqueous 10 wt/vol % HPCD; for Solubility Water: Na salts in water; for Solubility in 10 wt/vol HPCD: PBS/HPCD (25:75) solution
Description: Alternatively, the sodium salt can be prepared in situ by dissolving the free acid in phosphate buffered saline (PBS) that has been buffered to a pH of 7.4. The solubility and stability of these solutions can be improved by the use of an aqueous soluble co-solvent such as, but not limited to HPCD. This solubility can be further improved by the addition of surfactants such as PEG 400. In general, the free acid is suspended in 10 wt/vol % HPDC (10 g dissolved in 100 mL water) and treated with 0.5M PBS (pH 7.4) such that the volumes are in a ratio of 75:25.

sciatic nerve = settings: 1 and 10 mg/kg; cited from earlier work
[3] = Pharmacokinetics of primary sulfonamides and Na salts (oral, SC); type: in vivo
Description: HPCD formulations of compounds represented by formula I also display improved pharmacokinetic properties as compared to compounds dissolved in water.
When compound 2 is administered at 10 mg/kg SC excellent plasma drug concentrations are observed_(Cmax=2.0 μg/mL, C1/2=0.8 hrs). […]

SCG neurons = settings: cited from earlier work
pH of formulation = type: physicochemical; settings: PBS/HPCD (25:75) solution
Description: as §1

log P = type: physicochemical
[4] = Conversion to primary sulfonamide in rat primary hepatocytes; type: in vitro ADME; settings: 90 minutes
Description: Compound 15 is converted to compound 1 in the presence of liver microsomes using the procedure described by Cresteil, T., et al. (Cresteil, T., et al. Am. Soc. Pharm. Exper. Therapeutics, 2002, 30, 438-445). Upwards of 50% conversion is observed after 60 minutes. When incubated with rat primary hepatocytes, the conversion of compounds 15, 37, and 44 to their respective primary sulfonamides, 1, 11, and 13, is observed.

[5] = gavage 10 mg/kg, CMC/Tween 80 (semi-)suspension
[6] = Taxol induced cell death, read-out: Taxol SCG IC50

Compound	pH (pH of formulation)	log P (log P)	Stability in 10 wt/vol HPCD [1]	Solubility in 10 wt/vol HPCD [2]	also measured
NS(=O)(=O)c1nn2c(Br)c(-c3ccccc3)nc2s1 [5-Br-6-Ph-ITS, 5-Bromo-6-phenylmidazo[2,1-b]-1,3,4,-thiadiazole-2-sulfonamide, reference compound]					IC50 (15N neuroblastoma cells): 3 µM; degradation in microsomal fractions (Microsomal stability): rapidly degraded; also recorded: rapidly consumer by microsomal fractions; Microsomal Stability (1 hr) (Microsomal stability): 0%
[NH-]S(=O)(=O)c1nn2cc(-c3ccccc3)nc2s1.[Na+] [Compound 2]					Stability of HPCD formulation [1]: >14 days; Cisplatin-induced loss in SNCV (Male Sprague-Dawley rats; 10-30 mg/kg, data not shown): protective; efficacy in cisplatin model of peripheral neuropathy (Male Sprague-Dawley rats): efficacy; Solubility 10 wt/vol % HPCD water [2]: 20000 µg/mL; Solubility Water [2]: 10000 µg/mL; functional recovery (toe spread) (sciatic nerve): improved recovery; C1/2 ([3]; SC 10 mg/kg): 0.8 h; plasma Cmax ([3]; SC 10 mg/kg, 10 wt/vol % HPCD solution): 2000 ng/mL; C1/2 [3, 5]: 0.9 h; oral bioavailability [3, 5]: improved; Cmax ([3]; gavage 10 mg/kg, aqueous 0.5 wt/vol % CMC/0.5 wt/vol % Tween 80 (semi-)suspension): 560 ng/mL
NS(=O)(=O)c1nn2cc(-c3ccc(N4CCOCC4)cc3)nc2s1 [Compound 5]					IC50 (SCG neurons; [6]): 7 µM; IC50 (SCG neurons; anti-NGF induced cell death, read-out: anit-NGF SCG IC50): 22 µM; IC50 (15N neuroblastoma cells): ~20 µM and 20 µM; Microsomal Stability (1 hr) (Microsomal stability): 100%
[NH-]S(=O)(=O)c1nn2cc(-c3ccc(N4CCOCC4)cc3)nc2s1.[Na+] [Compound 6]					Stability of HPCD formulation [1]: >14 days; Cisplatin-induced loss in SNCV (Male Sprague-Dawley rats; 10-30 mg/kg, data not shown): protective; efficacy in cisplatin model of peripheral neuropathy (Male Sprague-Dawley rats): efficacy; Solubility 10 wt/vol % HPCD water [2]: 15000 µg/mL; Solubility Water [2]: 2300 µg/mL
NS(=O)(=O)c1nn2cc(-c3ccc4c(c3)OCCCO4)nc2s1 [Compound 7]					IC50 (SCG neurons; [6]): 7 µM
COc1cccc(-c2ccc(-c3cn4nc(S(N)(=O)=O)sc4n3)cc2)c1 [Compound 9]					IC50 (SCG neurons; [6]): 3 µM; IC50 (15N neuroblastoma cells): 5 µM; Microsomal Stability (1 hr) (Microsomal stability): 74%
COc1cccc(-c2ccc(-c3cn4nc(S([NH-])(=O)=O)sc4n3)cc2)c1.[Na+] [Compound 10]					Stability of HPCD formulation [1]: >14 days; Cisplatin-induced loss in SNCV (Male Sprague-Dawley rats; 10-30 mg/kg, data not shown): protective; efficacy in cisplatin model of peripheral neuropathy (Male Sprague-Dawley rats): efficacy; Solubility 10 wt/vol % HPCD water [2]: 10000 µg/mL; functional recovery (toe spread) (sciatic nerve): improved recovery
[NH-]S(=O)(=O)c1nn2cc(-c3ccc(-c4cccc(C(F)(F)F)c4)cc3)nc2s1.[Na+] [Compound 12]					Stability of HPCD formulation [1]: >14 days; Cisplatin-induced loss in SNCV (Male Sprague-Dawley rats; 10-30 mg/kg, data not shown): protective; efficacy in cisplatin model of peripheral neuropathy (Male Sprague-Dawley rats): efficacy; Solubility 10 wt/vol % HPCD water [2]: 4000 µg/mL; Solubility Water [2]: 1400 µg/mL
[NH-]S(=O)(=O)c1nn2cc(-c3ccc(Oc4ccc(Cl)cc4)cc3)nc2s1.[Na+] [Compound 14]					Stability of HPCD formulation [1]: >14 days; Cisplatin-induced attenuation of SNCV (Male Sprague-Dawley rats; 10 mg/kg): prevented; Cisplatin-induced loss in SNCV (Male Sprague-Dawley rats; 10 and 30 mg/kg): prevented; efficacy in cisplatin model of peripheral neuropathy (Male Sprague-Dawley rats): efficacy; Solubility 10 wt/vol % HPCD water [2]: 20000 µg/mL; Solubility Water [2]: 10000 µg/mL
CCCC(=O)NS(=O)(=O)c1nn2cc(-c3ccccc3)nc2s1 [Compound 16]	7.4	3.67	>4 weeks	4000 µg/mL (≈ 11.4 mM)	
CC(=O)NCC(=O)NS(=O)(=O)c1nn2cc(-c3ccccc3)nc2s1 [Compound 20]	7.4	1.45	>4 weeks	10000 µg/mL (≈ 26.4 mM)	
O=C(O)CCC(=O)NS(=O)(=O)c1nn2cc(-c3ccccc3)nc2s1 [Compound 22]	7.4	2.26	>4 weeks	8000 µg/mL (≈ 21 mM)	
CSCCC(NC(=O)OC(C)(C)C)C(=O)NS(=O)(=O)c1nn2cc(-c3ccccc3)nc2s1 (stereo not shown) [Compound 23]	7.4	3.37	>1 weeks	5000 µg/mL (≈ 9.77 mM)	
COCC(=O)NS(=O)(=O)c1nn2cc(-c3ccc(-c4cccc(C(F)(F)F)c4)cc3)nc2s1 [Compound 39]	7.4	4.85	>1 weeks	10000 µg/mL (≈ 20.1 mM)	Cisplatin-induced attenuation of SNCV (Male Sprague-Dawley rats; 30 mg/kg SC): protective activity
CCCC(=O)NS(=O)(=O)c1nn2cc(-c3ccc(-c4cccc(C(F)(F)F)c4)cc3)nc2s1 [Compound 40]	7.4	6.26	>1 weeks	5000 µg/mL (≈ 10.1 mM)	
COCCOCC(=O)NS(=O)(=O)c1nn2cc(-c3ccc(-c4cccc(C(F)(F)F)c4)cc3)nc2s1 [Compound 41]	7.4	4.96	>1 weeks	10000 µg/mL (≈ 18.5 mM)	
COCCOCCOCC(=O)NS(=O)(=O)c1nn2cc(-c3ccc(-c4cccc(C(F)(F)F)c4)cc3)nc2s1 [Compound 42]	7.4	4.35	>4 weeks	10000 µg/mL (≈ 17.1 mM)	
CC(=O)NS(=O)(=O)c1nn2cc(-c3ccc(Oc4ccc(Cl)cc4)cc3)nc2s1 [Compound 44]					conversion rate to primary sulfonamide [4]: 12%
COCC(=O)NS(=O)(=O)c1nn2cc(-c3ccc(Oc4ccc(Cl)cc4)cc3)nc2s1 [Compound 45]					Cisplatin-induced attenuation of SNCV (Male Sprague-Dawley rats; 30 mg/kg SC): protective activity

Second part, led by results:

pH (pH of formulation)	log P (log P)	Stability in 10 wt/vol HPCD [1]	Solubility in 10 wt/vol HPCD [2]	Compound	also measured
7.4	3.32	>4 weeks	10000 µg/mL (≈ 22.9 mM)	CC(C)(C)OC(=O)NCC(=O)NS(=O)(=O)c1nn2cc(-c3ccccc3)nc2s1 [Compound 18]	
7.4	2.48	>4 weeks	10000 µg/mL (≈ 24.5 mM)	CC(=O)NS(=O)(=O)c1nn2cc(-c3ccc(N4CCOCC4)cc3)nc2s1 [Compound 31]	Cisplatin-induced attenuation of SNCV (Male Sprague-Dawley rats; 30 mg/kg SC): protective activity
	2.14			COCC(=O)NS(=O)(=O)c1nn2cc(-c3ccc(N4CCOCC4)cc3)nc2s1 [Compound 32]	
7.4	5.19	>1 weeks	10000 µg/mL (≈ 21.4 mM)	CC(=O)NS(=O)(=O)c1nn2cc(-c3ccc(-c4cccc(C(F)(F)F)c4)cc3)nc2s1 [Compound 37]	dissolution ([2]; 25 mg in 1 mL PEG 400/ethanol (50:50) + ethanolamine (20 μL)): clear solution
7.4	5.76	>1 weeks	5000 µg/mL (≈ 9.53 mM)	CC(C)(C)OC(=O)NS(=O)(=O)c1nn2cc(-c3ccc(-c4cccc(C(F)(F)F)c4)cc3)nc2s1 [Compound 43]	
